Measurements taken from patent publication US11684581B2, “Drug and layered silicate composite with improved oral bioavailability, oral pharmacological composition containing the composite and method for producing the composite” (KOREA INSTITUTE OF GEOSCIENCE AND MINERAL RESOURCES, priority 2018, dated 2023).
Converted amounts (≈) assume the structure as drawn.

Key:
[1] = cited from earlier work
[2] = Drug release (eruption) experiment in eruption solution, HPLC; assay type: physicochemical; conditions: 50 rpm
Procedure: Drug release experiments were conducted to confirm the release of the drug from the bentonite based on the surrounding environment type. Specifically, the sorafenib 800 μg and the bentonite composite produced under the process condition of Present Example 7 containing 800 μg of sorafenib were dispersed in 40 ml of an eruption solution respectively to form two dispersions. The, each dispersion was shaken at 37° C. at 50 rpm to effect eruption.
The eruption solution used in this experiment was embodied as each of a solution of 0.1 N HCl in water at pH 1.2 and 50 mM phosphate buffer at pH 7.4. Further, 0.5% (v/v) Tween 80 (Polyoxyethyelene Sorbitan Monooleate) was added to the eruption solution to dissolve the sorafenib sufficiently.
Then, the eruption solution was collected based on a time schedule by 0.4 mL, filtered and analyzed by a high performance liquid chromatography.

[3] = Solubility of sorafenib in mixed solvent (acetonitrile / 1 N hydrochloric acid / dimethyl sulfoxide); assay type: physicochemical; conditions: aqueous with cosolvent or surfactant or cyclodextrin; 15% acetonitrile, 83% 1 N hydrochloric acid, 2% dimethyl sulfoxide; read-out: solubility of sorafenib (dissolved concentration)
Procedure: In one example, the solubility of sorafenib when the ratio between acetonitrile and 1 N hydrochloric acid was adjusted while the dimethyl sulfoxide ratio in the total mixed solvent was fixed at 2% was measured. As a result, we dissolved the sorafenib at a concentration of 0.5 mg/mL while at a concentration of 15% acetonitrile and 83% of 1 N hydrochloric acid.

[4] = In vivo pharmacokinetics analysis after oral administration; conditions: rat, 10 mg/kg based on sorafenib
Procedure: In order to evaluate the absorption and disappearance rate of the drug during oral administration, a in vivo pharmacokinetics analysis was performed on rats. A femoral artery of the rat was cannulated with PESO tubes. Then, sorafenib suspension, and sorafenib and bentonite composite suspension as produced according to Present Example 7 were orally administered into the rat. Thereafter, the rat blood was collected through the PESO tube based on a time schedule and was centrifuged to obtain plasma. After the plasma samples were pretreated, the in-blood drug concentration was analyzed using a mass spectrometer. The dose was set to 10 mg/kg based on the amount of the sorafenib. The plasma was collected over 2 days.
FIG. 7 is a graph showing changes in concentration of a drug in a blood over time in oral administration of sorafenib suspension (●) and sorafenib and bentonite composite suspension (□).

released amount of the sorafenib ([2]; 50 mM phosphate buffer pH 7.4, 0.5% (v/v) Tween 80, 37° C., 8 hours): below 30% | released amount of the sorafenib ([2]; 0.1 N HCl pH 1.2, 0.5% (v/v) Tween 80, 37° C., 8 hours stated for sorafenib alone): below 30% | solubility [3]: 500 µg/mL (≈ 1080 µM) | AUC(0-inf) ([4]; plasma): 4850 ng·h/mL | Cmax ([4]; plasma): 100 ± 20 ng/mL | MRT ([4]; plasma): 20.5 h | Tmax ([4]; plasma): 6.67 h | half-life ([4]; plasma): 28.2 ± 6.15 h | AUC(0-t) ([4]; plasma collected over 2 days): 3120 ng·h/mL
SMILES: CNC(=O)c1cc(Oc2ccc(NC(=O)Nc3ccc(Cl)c(C(F)(F)F)c3)cc2)ccn1 [Sorafenib, sorafenib]
In vivo half-life ([1]; background statement): 24 to 48 h | amount of the drug taken excreted in feces ([1]; oral, during about a week until steady-state): More than 70%
